Data reported in US20080226719A1, “Combination of Rosiglitazone and Donepezil for Improvement of Cognitive Function” (priority 2005, published 2008).

System: Alzheimer's patients
Experiment: CIBIC+ in patients with mild to moderate AD, 24 week placebo-controlled study (Example 2)
Format: in vivo, human
Conditions: 24 weeks
Experimental: Analysis for the full intent to treat (ITT) population was performed on 511 subjects who were randomly allocated into one of four specific treatment regimes. Genotyping analysis was performed on 63% (323/511) of the ITT population.
Patient population included Caucasian males and females between 50-85 years of age who had been diagnosed with mild to moderate AD, were not receiving any medications which could adversely prejudice the study (e.g. PPAR-gamma agonists or conventional AD medicaments) or had any other potentially prejudicial ailments (e.g. diabetes or major psychiatric disorders).
Patients received either placebo or one of three dosage levels of extended release rosiglitazone provided once daily (2 mg, 4 mg and 8 mg tablets as described in Example 1). Patients were examined using the cognitive Alzheimer's Disease Assessment Scale (ADAS-cog; for further information see Rosen W G et al. Am. J. Psychiatry. 1984 141:1356-1364) and the Clinician's Interview-Based Impression of Change with caregiver information (CIBIC+; for further information see Knopman D S et al. Neurology 1994 44: 2315-2321); and secondary assessments were performed using: the Disability Assessment for Dementia (DAD, for further information see Gelinas L et al. Am J Occup Ther 1999 53: 471-81) and the Neuropsychiatric Inventory test (NPI, for further information see Cummings et al (1994) Neurology 44, 2308-2314) at the start of the study (baseline) and during the course of the study (after 8, 16 and 24 weeks of treatment).
APOE genotype was determined using the TaqMan PCR-based method of McLeod et al 2001 infra.
All statistics reflect last observed assessment carried forward (LOCF) measurements.
Higher CIBIC+ scores indicate a greater level of decline with scores below 4 denoting clinical improvement and scores above 4 denoting clinical decline.

[1] = Table 13, PGx ITT population, 0 APOE4 copies, 2 mg
[2] = Table 13, PGx ITT population, 0 APOE4 copies, 4 mg
[3] = Table 13, PGx ITT population, 0 APOE4 copies, 8 mg
[4] = Table 13, PGx ITT population, 1 APOE4 copy, 2 mg
[5] = Table 13, PGx ITT population, 1 APOE4 copy, 4 mg
[6] = Table 13, PGx ITT population, 1 APOE4 copy, 8 mg
[7] = Table 13, PGx ITT population, 2 APOE4 copies, 2 mg
[8] = Table 13, PGx ITT population, 2 APOE4 copies, 4 mg
[9] = Table 13, PGx ITT population, 2 APOE4 copies, 8 mg

CN(CCOc1ccc(CC2SC(=O)NC2=O)cc1)c1ccccn1 (stereo not drawn) [Rosi, 5-[4-[2-(N-methyl-N-(2-pyridyl)amino)ethoxy]benzyl]thiazolidine-2,4-dione]
CIBIC+ Treatment Difference (95% confidence limits) Rosi − Placebo (ITT population, LOCF, 4 mg): −0.16 (−0.43, 0.11) | CIBIC+ LSMean (SE) (ITT population, LOCF, 8 mg): 3.8 (0.10) | CIBIC+ Treatment Difference (95% confidence limits) Rosi − Placebo (ITT population, LOCF, 8 mg): −0.22 (−0.49, 0.05) | CIBIC+ Treatment Difference (90% confidence limits) Rosi − Placebo [1]: −0.49 (−0.89, −0.08) | model adjusted CIBIC+ LSMean (SE) [1]: 3.47 (0.18) | CIBIC+ Treatment Difference (90% confidence limits) Rosi − Placebo [2]: −0.19 (−0.60, 0.22) | model adjusted CIBIC+ LSMean (SE) [2]: 3.76 (0.18) | CIBIC+ Treatment Difference (90% confidence limits) Rosi − Placebo [3]: −0.19 (−0.61, 0.22) | model adjusted CIBIC+ LSMean (SE) [3]: 3.76 (0.18) | CIBIC+ Treatment Difference (90% confidence limits) Rosi − Placebo [4]: 0.59 (0.08, 1.11) | model adjusted CIBIC+ LSMean (SE) [4]: 4.47 (0.23) | CIBIC+ Treatment Difference (90% confidence limits) Rosi − Placebo [5]: 0.23 (−0.28, 0.74) | model adjusted CIBIC+ LSMean (SE) [5]: 4.11 (0.23) | CIBIC+ Treatment Difference (90% confidence limits) Rosi − Placebo [6]: −0.20 (−0.73, 0.34) | model adjusted CIBIC+ LSMean (SE) [6]: 3.68 (0.25) | CIBIC+ Treatment Difference (90% confidence limits) Rosi − Placebo [7]: −0.92 (−2.20, 0.37) | model adjusted CIBIC+ LSMean (SE) [7]: 3.42 (0.58) | CIBIC+ Treatment Difference (90% confidence limits) Rosi − Placebo [8]: −0.39 (−1.55, 0.77) | model adjusted CIBIC+ LSMean (SE) [8]: 3.95 (0.47) | CIBIC+ Treatment Difference (90% confidence limits) Rosi − Placebo [9]: −0.07 (−1.08, 0.95) | model adjusted CIBIC+ LSMean (SE) [9]: 4.27 (0.34) | model adjusted CIBIC+ LSMean (SE) (Table 13A updated analysis with additional subjects, 0 APOE4 copies, 2 mg): 3.51 (0.17) | model adjusted CIBIC+ LSMean (SE) (Table 13A updated analysis with additional subjects, 0 APOE4 copies, 4 mg): 3.75 (0.17) | model adjusted CIBIC+ LSMean (SE) (Table 13A updated analysis with additional subjects, 0 APOE4 copies, 8 mg): 3.75 (0.18) | model adjusted CIBIC+ LSMean (SE) (Table 13A updated analysis with additional subjects, 1 APOE4 copy, 2 mg): 4.32 (0.21) | model adjusted CIBIC+ LSMean (SE) (Table 13A updated analysis with additional subjects, 1 APOE4 copy, 4 mg): 3.97 (0.22) | model adjusted CIBIC+ LSMean (SE) (Table 13A updated analysis with additional subjects, 1 APOE4 copy, 8 mg): 3.70 (0.24) | model adjusted CIBIC+ LSMean (SE) (Table 13A updated analysis with additional subjects, 2 APOE4 copies, 2 mg): 3.46 (0.57) | model adjusted CIBIC+ LSMean (SE) (Table 13A updated analysis with additional subjects, 2 APOE4 copies, 4 mg): 3.93 (0.47) | model adjusted CIBIC+ LSMean (SE) (Table 13A updated analysis with additional subjects, 2 APOE4 copies, 8 mg): 4.29 (0.33) | CIBIC+ Treatment Difference (90% confidence limits) Rosi − Placebo (Table 13A updated analysis, 0 APOE4 copies, 2 mg): −0.46 (−0.85, −0.07) | CIBIC+ Treatment Difference (90% confidence limits) Rosi − Placebo (Table 13A updated analysis, 0 APOE4 copies, 4 mg): −0.22 (−0.62, 0.18) | CIBIC+ Treatment Difference (90% confidence limits) Rosi − Placebo (Table 13A updated analysis, 0 APOE4 copies, 8 mg): −0.22 (−0.62, 0.19) | CIBIC+ Treatment Difference (90% confidence limits) Rosi − Placebo (Table 13A updated analysis, 1 APOE4 copy, 2 mg): 0.39 (−0.09, 0.87) | CIBIC+ Treatment Difference (90% confidence limits) Rosi − Placebo (Table 13A updated analysis, 1 APOE4 copy, 4 mg): 0.04 (−0.44, 0.53) | CIBIC+ Treatment Difference (90% confidence limits) Rosi − Placebo (Table 13A updated analysis, 1 APOE4 copy, 8 mg): −0.22 (−0.74, 0.29) | CIBIC+ Treatment Difference (90% confidence limits) Rosi − Placebo (Table 13A updated analysis, 2 APOE4 copies, 2 mg): −0.91 (−2.19, 0.36) | CIBIC+ Treatment Difference (90% confidence limits) Rosi − Placebo (Table 13A updated analysis, 2 APOE4 copies, 4 mg): −0.45 (−1.59, 0.70) | CIBIC+ Treatment Difference (90% confidence limits) Rosi − Placebo (Table 13A updated analysis, 2 APOE4 copies, 8 mg): −0.09 (−1.09, 0.92)
